20 compounds from patent US9682995B2, “Amino-substituted isothiazoles” (BAYER PHARMA AKTIENGESELLSCHAFT, priority 2013, dated 2017) can be followed below.

Assay type in all cases: cell-based
For test [1], the system named is NCI-H460. As to the kind of experiment: Proliferation assay (crystal violet), NCI-H460. The following applies: Homo sapiens, 96 h; NCI-H460, 4 days; read-out: Inhibition of proliferation IC50 NCI-H460. The procedure:
(§1) Cultivated tumor cells (cells were ordered from ATCC, except HeLa-MaTu and HeLa-MaTu-ADR, which were ordered from EPO-GmbH, Berlin) were plated at a density of 1000 to 5000 cells/well, depending on the growth rate of the respective cell line, in a 96-well multititer plate in 200 μL of their respective growth medium supplemented 10% fetal calf serum. After 24 hours, the cells of one plate (zero-point plate) were stained with crystal violet (see below), while the medium of the other plates was replaced by fresh culture medium (200 μl), to which the test substances were added in various concentrations (0 μM, as well as in the range of 0.001-10 μM; the final concentration of the solvent dimethyl sulfoxide was 0.5%). The cells were incubated for 4 days in the presence of test substances. Cell proliferation was determined by staining the cells with crystal violet: the cells were fixed by adding 20 μl/measuring point of an 11% glutaric aldehyde solution for 15 minutes at room temperature. After three washing cycles of the fixed cells with water, the plates were dried at room temperature. The cells were stained by adding 100 μl/measuring point of a 0.1% crystal violet solution (pH 3.0). After three washing cycles of the stained cells with water, the plates were dried at room temperature. The dye was dissolved by adding 100 μl/measuring point of a 10% acetic acid solution. Absorption was determined by photometry at a wavelength of 595 nm. The change of cell number, in percent, was calculated by normalization of the measured values to the absorption values of the zero-point plate (=0%) and the absorption of the untreated (0 μm) cells (=100%). The IC50 values were determined by means of a 4 parameter fit.

In test [2] the test system is Caco2. In words: Proliferation assay (crystal violet), Caco2. The following applies: Homo sapiens, Caco-2, 96 h; Caco2, 4 days; read-out: Inhibition of proliferation IC50 Caco2. As to the method:
as §1

Test [3] concerns HeLa-MaTu-ADR. In words: Proliferation assay (crystal violet), HeLa-MaTu-ADR. The following applies: 96 h, 4 days, read-out: Inhibition of proliferation IC50 HeLa-MaTu-ADR. As to the method: as §1
Test [4] has as its system B16F10. As to the kind of experiment: Proliferation assay (crystal violet), B16F10. The settings on record: Mus musculus, B16-F10, 96 h; B16F10, 4 days; read-out: Inhibition of proliferation IC50 B16F10. As to the method: as §1
Test [5] has as its system DU145. As to the kind of experiment: Proliferation assay (crystal violet), DU145. The following applies: Homo sapiens, DU-145, 96 h; DU145, 4 days; read-out: Inhibition of proliferation IC50 DU145. The procedure:
as §1

For `CCc1ccccc1NC(=O)c1c(C)nsc1Nc1cnc2cccc(C)c2n1` [Example 33, N-(2-Ethylphenyl)-3-methyl-5-[(8-methylquinoxalin-2-yl)amino]-1,2-thiazole-4-carboxamide], the IC50 in test [1] came out at 1200 nM; in test [2], 740 nM; in test [3], 850 nM; in test [4], 1400 nM; in test [5] it was 1300 nM.
The corresponding values for `Cc1nsc(Nc2nc3c(C(F)(F)F)cccc3s2)c1C(=O)Nc1ccc(F)c(F)c1` [Example 51, N-(3,4-Difluorophenyl)-3-methyl-5-{[4-(trifluoromethyl)-1,3-benzothiazol-2-yl]-amino}-1,2-thiazole-4-carboxamide] are 280 nM, 69 nM, 370 nM, 470 nM and 160 nM.
`COc1ccc(NC(=O)c2c(C)nsc2Nc2cnc3c(F)c(F)ccc3n2)cn1` [Example 43, 5-[(5,6-Difluoroquinoxalin-2-yl)amino]-N-(6-methoxypyridin-3-yl)-3-methyl-1,2-thiazole-4-carboxamide]: the IC50 in test [1] amounted to 130 nM; in test [2] it was 380 nM; in test [3] it was 260 nM; in test [4], 230 nM; in test [5] it was 420 nM.
The corresponding values for `COc1ccc(NC(=O)c2c(C)nsc2Nc2nc3c(C(F)(F)F)cccc3s2)cn1` [Example 48, N-(6-Methoxypyridin-3-yl)-3-methyl-5-{[4-(trifluoromethyl)-1,3-benzothiazol-2-yl]-amino}-1,2-thiazole-4-carboxamide] are 210 nM, 430 nM, 350 nM, 430 nM and 600 nM.
The corresponding values for `CCc1ccccc1NC(=O)c1c(C)nsc1Nc1ccnc(C#N)n1` [Example 6, 5-[(2-Cyanopyrimidin-4-yl)amino]-N-(2-ethylphenyl)-3-methyl-1,2-thiazole-4-carboxamide] are 2100 nM, 2300 nM, 1900 nM, 2300 nM and 3000 nM.
For `COc1ccc(NC(=O)c2c(C)nsc2Nc2cnc3cc(C(F)(F)F)ccc3n2)cn1` [Example 45, N-(6-Methoxypyridin-3-yl)-3-methyl-5-{[6-(trifluoromethyl)quinoxalin-2-yl]amino}-1,2-thiazole-4-carboxamide], the IC50 in test [1] stood at 100 nM; in test [2], 380 nM; in test [3], 300 nM; in test [4], 190 nM; in test [5], 460 nM.
For `Cc1nsc(Nc2cnc3cc(F)ccc3n2)c1C(=O)Nc1ccc(F)c(F)c1` [Example 46, N-(3,4-Difluorophenyl)-5-[(6-fluoroquinoxalin-2-yl)amino]-3-methyl-1,2-thiazole-4-carboxamide], in that order: 86 nM, 110 nM, 110 nM, 120 nM and 180 nM.
`COc1ccc(NC(=O)c2c(C)nsc2Nc2cnc3cc(Cl)ccc3n2)cn1` [Example 23, 5-[(6-Chloroquinoxalin-2-yl)amino]-N-(6-methoxypyridin-3-yl)-3-methyl-1,2-thiazole-4-carboxamide]: the IC50 in test [1] stood at 2200 nM; in test [2] it was 2400 nM; in test [3], 2700 nM; in test [4], 8400 nM; in test [5] it was 9400 nM.
As for `Cc1nsc(Nc2ccc(C#N)cn2)c1C(=O)Nc1ccc(F)c(F)c1` [Example 28, 5-[(5-Cyanopyridin-2-yl)amino]-N-(3,4-difluorophenyl)-3-methyl-1,2-thiazole-4-carboxamide], the IC50 was found to be 99 nM in test [1]; 210 nM in test [2]; 120 nM in test [3]; 130 nM in test [4]; 320 nM in test [5].
For `Cc1nsc(Nc2cnccn2)c1C(=O)Nc1ccc(Cl)c(F)c1` [Example 56, N-(4-Chloro-3-fluorophenyl)-3-methyl-5-(pyrazin-2-ylamino)-1,2-thiazole-4-carboxamide], in that order: 370 nM, 560 nM, 370 nM, 470 nM and 540 nM.
As to `Cc1nsc(Nc2cnc3ccccc3n2)c1C(=O)Nc1ccc(Cl)c(F)c1` [Example 40, N-(4-Chloro-3-fluorophenyl)-3-methyl-5-(quinoxalin-2-ylamino)-1,2-thiazole-4-carboxamide], the IC50 was found to be 290 nM in test [1]; 470 nM in test [2]; 330 nM in test [3]; 440 nM in test [4]; 590 nM in test [5].
Regarding `CCOC(=O)c1cnn2ccc(Nc3snc(C)c3C(=O)Nc3ccc(F)c(F)c3)nc12` [Example 55, Ethyl 5-({4-[(3,4-difluorophenyl)carbamoyl]-3-methyl-1,2-thiazol-5-yl}amino)-pyrazolo[1,5-a]pyrimidine-3-carboxylate], the IC50 in test [1] amounted to 300 nM; in test [2], 150 nM; in test [3], 140 nM; in test [4] it was 380 nM; in test [5], 390 nM.
For `Cc1nsc(Nc2cc(C#N)ccn2)c1C(=O)Nc1ccc(Oc2ccc(F)cc2F)nc1` [Example 114, 5-[(4-Cyanopyridin-2-yl)amino]-N-[6-(2,4-difluorophenoxy)pyridin-3-yl]-3-methyl-1,2-thiazole-4-carboxamide], in that order: 520 nM, 980 nM, 690 nM, 1200 nM and 1300 nM.
The corresponding values for `CCc1ccccc1NC(=O)c1c(C)nsc1Nc1nc(C)nc2ccccc12` [Example 35, N-(2-Ethylphenyl)-3-methyl-5-[(2-methylquinazolin-4-yl)amino]-1,2-thiazole-4-carboxamide] are 1600 nM, 1600 nM, 610 nM, 1700 nM and 2400 nM.
The corresponding values for `Cc1nsc(Nc2cc(C#N)ccn2)c1C(=O)Nc1ccc(F)c(F)c1` [Example 27, 5-[(4-Cyanopyridin-2-yl)amino]-N-(3,4-difluorophenyl)-3-methyl-1,2-thiazole-4-carboxamide] are 220 nM, 450 nM, 240 nM, 220 nM and 350 nM.
For `Cc1nsc(Nc2cnc3ccccc3n2)c1C(=O)Nc1ccc(F)c(F)c1` [Example 50, N-(3,4-Difluorophenyl)-3-methyl-5-(quinoxalin-2-ylamino)-1,2-thiazole-4-carboxamide], the IC50 in test [1] amounted to 520 nM; in test [2], 270 nM; in test [3] it was 210 nM; in test [4] it was 300 nM; in test [5], 410 nM.
The corresponding values for `CCc1ccccc1NC(=O)c1c(C)nsc1Nc1cnc2ccccc2n1` [Example 19, N-(2-Ethylphenyl)-3-methyl-5-(quinoxalin-2-ylamino)-1,2-thiazole-4-carboxamide] are 1500 nM, 970 nM, 410 nM, 1800 nM and 2500 nM.
The corresponding values for `CCc1ccccc1NC(=O)c1c(C)nsc1Nc1cnc2ccc(Cl)cc2n1` [Example 41, 5-[(7-Chloroquinoxalin-2-yl)amino]-N-(2-ethylphenyl)-3-methyl-1,2-thiazole-4-carboxamide] are 350 nM, 170 nM, 640 nM, 680 nM and 750 nM.
For the compound `COc1ccc(NC(=O)c2c(C)nsc2Nc2nc3c(C(F)(F)F)cccc3s2)cc1F` [Example 47, N-(3-Fluoro-4-methoxyphenyl)-3-methyl-5-{[4-(trifluoromethyl)-1,3-benzothiazol-2-yl]amino}-1,2-thiazole-4-carboxamide], the IC50 in test [1] was found to be 180 nM; in test [2], 360 nM; in test [3], 83 nM; in test [4] it was 110 nM; in test [5], 49 nM.
For `COc1ccc(NC(=O)c2c(C)nsc2Nc2cnc3cccc(C)c3n2)cn1` [Example 22, N-(6-methoxypyridin-3-yl)-3-methyl-5-[(8-methylquinoxalin-2-yl)amino]-1,2-thiazole-4-carboxamide], in that order: 790 nM, 1600 nM, 760 nM, 950 nM and 2200 nM.
